Drawing on patent publication US11304929B2, “Tosylacetate based compounds and derivatives thereof as PHGDH inhibitors” (priority 2017, dated 2022), this text covers IC50 for 29 compounds.

The assay addresses PHGDH (Homo sapiens (Human), UniProt O43175). Briefly: 3-Phosphoglycerate Dehydrogenase (PHGDH) Fluorescence Intensity Assay, run at two NAD/3-PG ratios: PHGDH_HIGH_NAD/3-PG (250 μM NAD/500 μM 3-PG) and PHGDH_500_NAD/3-PG (500 μM NAD/500 μM 3-PG). Type of assay: biochemical.
Where [1] appears, read: 250 μM NAD/500 μM 3-PG, read-out: IC50 (PHGDH_HIGH_NAD/3-PG).
Where [2] appears, read: 500 μM NAD/500 μM 3-PG, read-out: IC50 (PHGDH_500_NAD/3-PG).

Each structure is given as a SMILES string. Read-outs that look alike come from different tables or passages of the source.

Chain of PHGDH (O43175 2-533 limits assumed): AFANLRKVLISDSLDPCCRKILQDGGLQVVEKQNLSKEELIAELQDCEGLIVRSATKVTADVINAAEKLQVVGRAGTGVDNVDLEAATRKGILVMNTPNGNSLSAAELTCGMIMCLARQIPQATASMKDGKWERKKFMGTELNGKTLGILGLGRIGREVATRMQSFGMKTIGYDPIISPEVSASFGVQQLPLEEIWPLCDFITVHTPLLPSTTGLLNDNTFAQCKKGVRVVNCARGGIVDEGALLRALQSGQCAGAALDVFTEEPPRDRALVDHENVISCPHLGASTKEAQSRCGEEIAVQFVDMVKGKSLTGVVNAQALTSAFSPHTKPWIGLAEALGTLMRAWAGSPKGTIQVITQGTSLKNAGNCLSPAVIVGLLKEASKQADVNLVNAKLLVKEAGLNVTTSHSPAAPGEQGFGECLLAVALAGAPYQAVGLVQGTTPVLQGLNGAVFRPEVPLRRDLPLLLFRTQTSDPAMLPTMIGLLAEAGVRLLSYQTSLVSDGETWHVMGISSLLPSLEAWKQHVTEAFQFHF

With `Cc1cc(Cl)c2cc(C(=O)N[C@H](CO)c3ccc(S(=O)(=O)CC(=O)OCCO)cc3)n(C)c2c1` [Example 09-034, 2-hydroxyethyl 2-{4-[(1S)-1-[(4-chloro-1,6-dimethyl-1H-indol-2-yl)formamido]-2-hydroxyethyl]benzenesulfonyl}acetate], under setting [1], the IC50 is 52 nM.
With `Cc1cc(Cl)c2cc(C(=O)N[C@H](CO)c3ccc(S(=O)(=O)CC(=O)OCC4COC4)cc3)n(C)c2c1` [Example 09-035, oxetan-3-ylmethyl 2-{4-[(1S)-1-[(4-chloro-1,6-dimethyl-1H-indol-2-yl)formamido]-2-hydroxyethyl]benzenesulfonyl}acetate], the IC50 under setting [1] turned out to be 54 nM.
With `Cc1cc2c(cc(C(=O)N[C@H](CO)c3ccc(S(=O)(=O)CC(=O)OCCO)cc3)n2C)c(Cl)c1Cl` [Example 09-036, 2-hydroxyethyl 2-{4-[(1S)-1-[(4,5-dichloro-1,6-dimethyl-1H-indol-2-yl)formamido]-2-hydroxyethyl]benzenesulfonyl}acetate], the IC50 under setting [2] came to 107 nM.
Take `Cc1cc2c(cc(C(=O)N[C@H](CO)c3ccc(S(=O)(=O)CC(=O)OC4CCOCC4)cc3)n2C)c(F)c1F` [Example 09-037, oxan-4-yl 2-{4-[(1S)-1-[(4,5-difluoro-1,6-dimethyl-1H-indol-2-yl)formamido]-2-hydroxyethyl]benzenesulfonyl}acetate]: the IC50 under setting [2] is 578 nM.
Consider `Cc1cc2c(cc(C(=O)N[C@H](CO)c3ccc(S(=O)(=O)CC(=O)OCCCO)cc3)n2C)c(F)c1F` [Example 09-038, 3-hydroxypropyl 2-{4-[(1S)-1-[(4,5-difluoro-1,6-dimethyl-1H-indol-2-yl)formamido]-2-hydroxyethyl]benzenesulfonyl}acetate], for which the IC50 under setting [2] is 255 nM.
Same read-out and setting: for `Cc1cc2c(cc(C(=O)N[C@H](CO)c3ccc(S(=O)(=O)CC(=O)OCC(C)(C)O)cc3)n2C)c(Cl)c1Cl` [Example 09-039, 2-hydroxy-2-methylpropyl 2-{4-[(1S)-1-[(4,5-dichloro-1,6-dimethyl-1H-indol-2-yl)formamido]-2-hydroxyethyl]benzenesulfonyl}acetate] the value was 168 nM; for `Cc1cc2c(cc(C(=O)N[C@H](CO)c3ccc(S(=O)(=O)CC(=O)OCCCO)cc3)n2C)c(Cl)c1Cl` [Example 09-040, 3-hydroxypropyl 2-{4-[(1S)-1-[(4,5-dichloro-1,6-dimethyl-1H-indol-2-yl)formamido]-2-hydroxyethyl]benzenesulfonyl}acetate], 190 nM.
Turning to `Cc1cc2c(cc(C(=O)N[C@H](CO)c3ccc(S(=O)(=O)CC(=O)OCCO)cc3)n2C)c(F)c1F` [Example 09-041, 2-hydroxyethyl 2-{4-[(1S)-1-[(4,5-difluoro-1,6-dimethyl-1H-indol-2-yl)formamido]-2-hydroxyethyl]benzenesulfonyl}acetate], the IC50 under setting [2] is 156 nM.
As to `Cc1cc2c(cc(C(=O)N[C@H](CO)c3ccc(S(=O)(=O)CC(=O)OCC(C)(C)CO)cc3)n2C)c(F)c1F` [Example 09-042, 3-hydroxy-2,2-dimethylpropyl 2-{4-[(1S)-1-[(4,5-difluoro-1,6-dimethyl-1H-indol-2-yl)formamido]-2-hydroxyethyl]benzenesulfonyl}acetate], the IC50 under setting [2] amounted to 509 nM.
On the same count and under the same terms, for `Cc1cc2c(cc(C(=O)N[C@H](CO)c3ccc(S(=O)(=O)CC(=O)OCC(C)(C)O)cc3)n2C)c(F)c1F` [Example 09-043, 2-hydroxy-2-methylpropyl 2-{4-[(1S)-1-[(4,5-difluoro-1,6-dimethyl-1H-indol-2-yl)formamido]-2-hydroxyethyl]benzenesulfonyl}acetate] the value was 246 nM.
The same measure, in the same setting: for `Cc1cc2c(cc(C(=O)N[C@H](CO)c3ccc(S(=O)(=O)CC(=O)OCC(C)(C)CO)cc3)n2C)c(Cl)c1Cl` [Example 09-044, 3-hydroxy-2,2-dimethylpropyl 2-{4-[(1S)-1-[(4,5-dichloro-1,6-dimethyl-1H-indol-2-yl)formamido]-2-hydroxyethyl]benzenesulfonyl}acetate] the value was 419 nM.
On to `COCCOC(=O)CS(=O)(=O)c1ccc([C@@H](C)NC(=O)c2cc(-c3ccccc3)nn2C)cc1` [Example 10-001, 2-methoxyethyl 2-{4-[(1R)-1-[(1-methyl-3-phenyl-1H-pyrazol-5-yl)formamido]ethyl]benzenesulfonyl}acetate], for which the IC50 under setting [1] is 1450 nM.
`C[C@@H](NC(=O)c1cc(-c2ccccc2)nn1C)c1ccc(S(=O)(=O)CC(=O)OCCN(C)C)cc1` [Example 10-002, 2-(dimethylamino)ethyl 2-{4-[(1R)-1-[(1-methyl-3-phenyl-1H-pyrazol-5-yl)formamido]ethyl]benzenesulfonyl}acetate]: the IC50 under setting [1] was 497 nM.
The same measure, in the same setting: to `C[C@@H](NC(=O)c1cc(-c2ccccc2)nn1C)c1ccc(S(=O)(=O)CC(=O)OCCF)cc1` [Example 10-004, 2-fluoroethyl 2-{4-[(1R)-1-[(1-methyl-3-phenyl-1H-pyrazol-5-yl)formamido]ethyl]benzenesulfonyl}acetate] belongs 1440 nM; to `C[C@@H](NC(=O)c1cc(-c2ccc(F)cc2)nn1C)c1ccc(S(=O)(=O)CC(=O)OCCO)cc1` [Example 10-005, 2-hydroxyethyl 2-{4-[(1R)-1-{[3-(4-fluorophenyl)-1-methyl-1H-pyrazol-5-yl]formamido}ethyl]benzenesulfonyl}acetate], 766 nM.
Turning to `C[C@@H](NC(=O)c1cc(-c2ccc(F)cc2)nn1C)c1ccc(S(=O)(=O)CC(=O)OCC2COC2)cc1` [Example 10-007, oxetan-3-ylmethyl 2-{4-[(1R)-1-{[3-(4-fluorophenyl)-1-methyl-1H-pyrazol-5-yl]formamido}ethyl]benzenesulfonyl}acetate], the IC50 under setting [1] was 714 nM.
`COC(=O)C[S+]([O-])c1ccc([C@@H](C)NC(=O)c2cc3c(Cl)c(Cl)c(C)cc3n2C)cc1` (stereo partly drawn) [Example 11-001, methyl 2-{4-[(1R)-1-[(4,5-dichloro-1,6-dimethyl-1H-indol-2-yl)formamido]ethyl]benzenesulfinyl}acetate]: the IC50 is, setting by setting: under setting [1], 296 nM; under setting [2], 436 nM.
Regarding `COC(=O)C[S@@+]([O-])c1ccc([C@@H](CO)NC(=O)c2cc3c(Cl)c(Cl)c(C)cc3n2C)cc1` [Example 11-002, methyl 2-[(R)-4-[(1S)-1-[(4,5-dichloro-1,6-dimethyl-1H-indol-2-yl)formamido]-2-hydroxyethyl]benzenesulfinyl]acetate], the IC50 stood at 189 nM under setting [1] and 291 nM under setting [2].
As to `COC(=O)C[S@+]([O-])c1ccc([C@@H](CO)NC(=O)c2cc3c(Cl)c(Cl)c(C)cc3n2C)cc1` [Example 11-003, methyl 2-[(S)-4-[(1S)-1-[(4,5-dichloro-1,6-dimethyl-1H-indol-2-yl)formamido]-2-hydroxyethyl]benzenesulfinyl]acetate], the IC50 worked out at 89 nM under setting [1] and 137 nM under setting [2].
Turning to `COC(=O)C[S+]([O-])c1ccc([C@@H](CO)NC(=O)c2cc3c(Cl)c(Cl)c(C)cc3n2C)cc1` (stereo partly drawn) [Example 11-004, methyl 2-{4-[(1S)-1-[(4,5-dichloro-1,6-dimethyl-1H-indol-2-yl)formamido]-2-hydroxyethyl]benzenesulfinyl}acetate], the IC50 under setting [1] stood at 98 nM and the IC50 under setting [2] worked out at 196 nM.
In the case of `COC(=O)C[S+]([O-])c1ccc([C@@H](CO)NC(=O)c2cc3c(Cl)cc(C)cc3n2C)cc1` (stereo partly drawn) [Example 11-005, methyl 2-{4-[(1S)-1-[(4-chloro-1,6-dimethyl-1H-indol-2-yl)formamido]-2-hydroxyethyl]benzenesulfinyl}acetate], the IC50 under setting [1] stood at 221 nM.
On the same count and under the same terms, to `COC(=O)C[S@@+]([O-])c1ccc([C@@H](C)NC(=O)c2cc3c(Cl)cc(C)cc3n2C)cc1` [Example 11-006, methyl 2-[(R)-4-[(1R)-1-[(4-chloro-1,6-dimethyl-1H-indol-2-yl)formamido]ethyl]benzenesulfinyl]acetate] belongs 1120 nM.
On the same count and under the same terms, for `COC(=O)C[S@+]([O-])c1ccc([C@@H](C)NC(=O)c2cc3c(Cl)cc(C)cc3n2C)cc1` [Example 11-007, methyl 2-[(S)-4-[(1R)-1-[(4-chloro-1,6-dimethyl-1H-indol-2-yl)formamido]ethyl]benzenesulfinyl]acetate] the value was 234 nM.
For the compound `COC(=O)C[S@+]([O-])c1ccc([C@@H](CO)NC(=O)c2cc3c(Cl)cc(C)cc3n2C)cc1` [Example 11-008, methyl 2-[(S)-4-[(1S)-1-[(4-chloro-1,6-dimethyl-1H-indol-2-yl)formamido]-2-hydroxyethyl]benzenesulfinyl]acetate], under setting [1], the IC50 worked out at 120 nM.
Same read-out and setting: to `COC(=O)C[S+]([O-])c1ccc([C@@H](C)NC(=O)c2cc3c(Cl)cc(C)cc3n2C)cc1` (stereo partly drawn) [Example 11-009, methyl 2-{4-[(1R)-1-[(4-chloro-1,6-dimethyl-1H-indol-2-yl)formamido]ethyl]benzenesulfinyl}acetate] belongs 612 nM; to `COC(=O)C[S@@+]([O-])c1ccc([C@@H](CO)NC(=O)c2cc3c(Cl)cc(C)cc3n2C)cc1` [Example 11-010, methyl 2-[(R)-4-[(1S)-1-[(4-chloro-1,6-dimethyl-1H-indol-2-yl)formamido]-2-hydroxyethyl]benzenesulfinyl]acetate], 447 nM.
Consider `Cc1cc2c(cc(C(=O)N[C@H](CO)c3ccc([S@@+]([O-])CC(=O)O)cc3)n2C)c(Cl)c1Cl` [Example 12-001, 2-[(S)-4-[(1S)-1-[(4,5-dichloro-1,6-dimethyl-1H-indol-2-yl)formamido]-2-hydroxyethyl]benzenesulfinyl]acetic acid], for which the IC50 stood at 7 nM under setting [1] and 9 nM under setting [2].
Regarding `Cc1cc2c(cc(C(=O)N[C@H](CO)c3ccc([S@+]([O-])CC(=O)O)cc3)n2C)c(Cl)c1Cl` [Example 12-002, 2-[(R)-4-[(1S)-1-[(4,5-dichloro-1,6-dimethyl-1H-indol-2-yl)formamido]-2-hydroxyethyl]benzenesulfinyl]acetic acid], the IC50 by setting is: under setting [1], 3 nM; under setting [2], 4 nM.
Take `Cc1cc2c(cc(C(=O)N[C@H](CO)c3ccc([S+]([O-])CC(=O)O)cc3)n2C)c(Cl)c1Cl` (stereo partly drawn) [Example 12-003, 2-{4-[(1S)-1-[(4,5-dichloro-1,6-dimethyl-1H-indol-2-yl)formamido]-2-hydroxyethyl]benzenesulfinyl}acetic acid]: the IC50 under setting [1] worked out at 3 nM and the IC50 under setting [2] stood at 5 nM.
